Columns and labels:
[1] = test system: ischemic lungs explanted from mice; set-up: method as in PMID 29522264; details: ex vivo; cited from earlier work
[2] = tissue homogenate binding by ultrafiltration; assay type: in vitro ADME, mice
Procedure: After centrifugation of mixtures from tissue or microsomal incubations for 15 min at 4 °C, the supernatants were filtered through a 0.2 -µm-pore-size syringe filter and stored in the autosampler at 6 °C until analysis by LC-MS/MS as […]
SM5 Tissue binding of SH045
The tissue binding of SH045 was analyzed exemplarily in lung, liver and kidney homogenate using ultrafiltration [5]. Appropriate concentrations of homogenate and SH045 were optimized out of data from a series of various dilution ratios of tissue homogenates (1/2, 1/5, 1/10 and 1/20, w/v) and SH045 concentrations in spiked homogenate (liver and kidney: 0.05, 0.1, 0.5, 1, 2, 5 µg/mL; lung: 1, 2, 5, 10, 20, 50 µg/mL, not shown). Tissue binding assays were performed as follows: 448 µL tissue homogenates (1/10, w/v) were mixed with 2 µL SH045 (final: 50 µg/ml for lung, 2 µg/ml for liver and 1 µg/ml kidney). After incubation for 15 min at 37 °C at 450 rpm, 400 µL of the mixture was transferred to centrifugal filter units (30kDa) and centrifuged for 20 min at 2000g and 37 °C. 20 µL of the mixture and the filtrate were analyzed for SH045. The concentration in the filtrate refers to the unbound SH045 concentration according to tissue binding (%) = (ctot – cfiltrate) / ctotal × 100%. […]
Mean maximum rate vmax and Michaelis- […]
CLint,micr the intrinsic clearance CLint, equal to the maximum enzyme activity of liver and for in vitro-in vivo exploration of hepatic clearance CLhep in mouse and human using the “well-stirred” model [6].
SM7 Identification of metabolism pathways and metabolites of SH045 in MLM and HLM To determine possible metabolism pathways of SH045 in MLM and HLM, an in vitro inhibition approach was performed with CYP-isoform specific inhibitors (final concentration): ciprofloxacin (CYP1A2; 150 µM), pilocarpine (CYP2A6; 50 µM), ticlopidine (CYP2B6; 5 µM), quercetin (CYP2C8; 2 µM), sulfaphenazole (CYP2C9; 10 µM), fluvoxamine (CYP2C19; 10 µM), quinidine (CYP2D6; 10 µM), 4-methyl pyrazole (CYP2E1; 100 µM) and ketoconazole (CYP3A4; 1 µM) [7, 8]. […]

[3] = tissue homogenate binding by ultrafiltration; assay type: in vitro ADME, mice; details: mean ± RSD

Tissue binding ([2]; kidney): 98%
Tissue binding ([2]; liver): 97%
Tissue binding ([2]; lung): 97%
Tissue binding ([3]; kidney homogenate 1:10, SH045 1 µg/mL, 30 min): 97.6 ± 0.9%
Tissue binding ([3]; kidney homogenate 1:10, SH045 1 µg/mL, 60 min): 97.8 ± 0.4%
Tissue binding ([3]; kidney homogenate 1:10, SH045 1 µg/mL, 120 min): 98.3 ± 0.2%
Tissue binding ([3]; kidney homogenate 1:10, SH045 1 µg/mL, 240 min): 98.3 ± 0.1%
Tissue binding ([3]; liver homogenate 1:10, SH045 2 µg/mL, 30 min): 99.4 ± 0.1%
Tissue binding ([3]; liver homogenate 1:10, SH045 2 µg/mL, 60 min): 97.1 ± 1.0%
Tissue binding ([3]; liver homogenate 1:10, SH045 2 µg/mL, 120 min): 99.0 ± 0.1%
Tissue binding ([3]; liver homogenate 1:10, SH045 2 µg/mL, 240 min): 97.8 ± 0.9%
Tissue binding ([3]; lung homogenate 1:10, SH045 50 µg/mL, 30 min): 93.5 ± 1.2%
Tissue binding ([3]; lung homogenate 1:10, SH045 50 µg/mL, 60 min): 94.9 ± 0.1%
Tissue binding ([3]; lung homogenate 1:10, SH045 50 µg/mL, 120 min): 97.8 ± 0.5%
Tissue binding ([3]; lung homogenate 1:10, SH045 50 µg/mL, 240 min): 97.4 ± 0.8%
Compound: C=C[C@@](C)(O)CC[C@H]1C(=C)C[C@H](OC(=O)NC)[C@H]2C(C)(C)CCC[C@]12C [SH045, (1S,4S,4aR,8aS)-4-((S)-3-Hydroxy-3-methylpent-4-en-1-yl)-4a,8,8-trimethyl-3-methylenedecahydronaphthalen-1-yl methylcarbamate]
edema formation after reperfusion [1]: reduced edema formation

Source: article PMC8998618, “A Pharmacokinetic and Metabolism Study of the TRPC6 Inhibitor SH045 in Mice by LC-MS/MS” (International Journal of Molecular Sciences, 2022)
